This is an account of results in patent publication US20230295260A1, “GLP RECEPTOR AGONISTS” (HEPTARES THERAPEUTICS LIMITED, priority 2020, published 2023).

Structures are written as SMILES. Non-standard residues stand in square brackets, D forms with d. Residues, ends and D or L forms follow the SMILES beside them. *: point of attachment. Malonyl(2,2-Me2,histaminyl) = CC(C)(C(=O)NCCc1cnc[nH]1)C(=O)*; Ala(1H-tetrazol-5-yl) = N[C@@H](Cc1nnn[nH]1)C(=O)O; αMeF = C[C@](N)(Cc1ccccc1)C(=O)O; Nle = CCCC[C@H](N)C(=O)O; Aib = CC(C)(N)C(=O)O; Alloc = C=CCOC(=O)*

One test addresses T1, human GLP2 receptor (Homo sapiens, UniProt O95838).
T1 sequence (O95838 1-553): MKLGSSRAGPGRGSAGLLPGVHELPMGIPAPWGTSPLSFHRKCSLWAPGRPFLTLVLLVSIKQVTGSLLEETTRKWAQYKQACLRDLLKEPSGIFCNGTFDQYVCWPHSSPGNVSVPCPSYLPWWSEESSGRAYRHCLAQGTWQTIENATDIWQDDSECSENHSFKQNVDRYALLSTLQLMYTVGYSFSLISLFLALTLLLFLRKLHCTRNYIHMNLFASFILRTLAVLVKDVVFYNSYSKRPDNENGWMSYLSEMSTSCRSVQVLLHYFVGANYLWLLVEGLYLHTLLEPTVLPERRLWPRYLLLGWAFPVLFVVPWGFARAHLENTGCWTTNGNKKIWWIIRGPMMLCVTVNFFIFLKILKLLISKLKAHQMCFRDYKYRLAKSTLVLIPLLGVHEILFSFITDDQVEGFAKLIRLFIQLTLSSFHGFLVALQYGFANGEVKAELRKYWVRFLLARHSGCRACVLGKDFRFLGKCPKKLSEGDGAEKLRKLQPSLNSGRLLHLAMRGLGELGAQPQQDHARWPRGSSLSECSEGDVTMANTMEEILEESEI
Nature of the test: cAMP accumulation assay (HTRF), functional agonism of human GLP2 receptor in HEK cells.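 For all read-outs here: HEK cells transduced via BacMam to express human GLP2 receptor, agonist-stimulated cAMP measured by HTRF after 45 min at 37 °C in HBSS with 0.5 mM IBMX.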 The following applies: for Emax: HEK293, read-out: Human GLP-2R agonist cAMP Emax. In general terms: Changes in cAMP serve as a functional read-out for many G protein-coupled receptors.

The next test concerns the target T2, human GLP1 receptor (Homo sapiens, UniProt P43220).
T2 construct: expressed in transfected cells; host or cells: HEK cells, BacMam virus transduction
As to the kind of experiment: cAMP accumulation assay (HTRF), functional agonism of human GLP1 receptor in HEK cells. The class given is cell-based. Particulars: HEK cells, human GLP1 receptor BacMam, 45 min 37° C.; for Emax: HEK293, read-out: Human GLP-1R agonist cAMP Emax; for EC50: read-out: Human GLP-1R agonist cAMP pEC50 (converted).

T2 sequence (P43220 24-463): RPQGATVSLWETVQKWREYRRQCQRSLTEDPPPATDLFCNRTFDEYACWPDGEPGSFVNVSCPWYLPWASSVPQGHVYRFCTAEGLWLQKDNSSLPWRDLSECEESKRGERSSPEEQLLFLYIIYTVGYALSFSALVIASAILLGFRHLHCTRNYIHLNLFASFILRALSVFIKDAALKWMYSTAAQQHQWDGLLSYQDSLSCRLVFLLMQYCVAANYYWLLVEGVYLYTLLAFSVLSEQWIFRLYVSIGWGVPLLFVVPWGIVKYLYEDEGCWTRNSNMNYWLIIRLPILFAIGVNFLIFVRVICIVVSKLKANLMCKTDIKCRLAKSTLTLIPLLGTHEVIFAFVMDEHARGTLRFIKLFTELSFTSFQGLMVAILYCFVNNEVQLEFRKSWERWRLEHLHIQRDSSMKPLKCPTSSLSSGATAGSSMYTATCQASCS
Procedure for human GLP1 receptor: The functional activity of the peptides were assessed using a HTRF cAMP assay. pEC50 values are quoted.
cAMP production upon agonist stimulation of human GLP2 or GLP1 receptor was assessed utilizing HiRange cAMP kit (Cisbio). In brief, HEK cells were infected with either human GLP2 or GLP1 receptor BacMam virus for 24 hours and frozen for later use in the assay. […] Cells were prepared in the assay buffer (HBSS (Lonza) supplemented with 0.5 mM IBMX (Tocris)). After 45 min incubation at 37° C., the reaction was stopped by addition of the HTRF detection reagents in the lysis buffer provided in the kit.

Consider `C=CCOC(=O)NCCCC[C@H](NC(=O)[C@H](CC(C)C)NC(=O)[C@H](CC(=O)O)NC(=O)[C@H](CC(C)C)NC(=O)[C@@H](NC(=O)[C@@H](NC(=O)[C@@H](Cc1ccccc1)NC(=O)[C@H](CCCC)NC(=O)[C@H](CCC(=O)O)NC(=O)[C@H](CC(=O)O)NC(=O)[C@H](CO)NC(=O)[C@](C)(Cc1ccccc1)NC(=O)[C@H](CO)NC(=O)CNC(=O)[C@H](Cc1nn[nH]n1)NC(=O)C(C)(C)C(=O)NCCc1c[nH]cn1)[C@@H](C)O)[C@@H](C)CC)C(=O)N[C@@H](C)C(=O)N[C@@H](C)C(=O)N[C@@H](CCCCN)C(=O)N[C@@H](CC(=O)O)C(=O)N[C@@H](Cc1ccccc1)C(=O)N[C@H](C(=O)N[C@@H](CC(N)=O)C(=O)N[C@@H](Cc1c[nH]c2ccccc12)C(=O)N[C@@H](CC(C)C)C(=O)N[C@H](C(=O)N[C@@H](CCC(N)=O)C(=O)N[C@H](C(=O)N[C@@H](CCCCN)C(=O)N[C@H](C(=O)N[C@H](C(=O)N[C@@H](CC(=O)O)C(N)=O)[C@@H](C)O)[C@@H](C)CC)[C@@H](C)O)[C@@H](C)CC)[C@@H](C)CC` [Example 10] ({Malonyl(2,2-Me2,histaminyl)}-[Ala(1H-tetrazol-5-yl)]GS[αMeF]SDE[Nle][dF]TILDLK(Alloc)AAKDFINWLIQTKITD-NH2), for which the values for the EC50 at human GLP2 receptor and on human GLP1 receptor were 0.01 nM and 0.1 nM, respectively. Further, the Emax on human GLP2 receptor stood at 101%; at human GLP1 receptor, 96.4%.
For `C=CCOC(=O)NCCCC[C@H](NC(=O)[C@H](CC(C)C)NC(=O)[C@H](CC(=O)O)NC(=O)[C@H](CC(C)C)NC(=O)[C@@H](NC(=O)[C@@H](NC(=O)[C@@H](Cc1ccccc1)NC(=O)[C@H](CCCC)NC(=O)[C@H](CCC(=O)O)NC(=O)[C@H](CC(=O)O)NC(=O)[C@H](CO)NC(=O)[C@](C)(Cc1ccccc1)NC(=O)[C@H](CO)NC(=O)[C@@H](C)NC(=O)[C@H](Cc1nn[nH]n1)NC(=O)C(C)(C)C(=O)NCCc1c[nH]cn1)[C@@H](C)O)[C@@H](C)CC)C(=O)NC(C)(C)C(=O)N[C@@H](C)C(=O)N[C@@H](CCCCN)C(=O)N[C@@H](CC(=O)O)C(=O)N[C@@H](Cc1ccccc1)C(=O)N[C@H](C(=O)N[C@@H](CC(N)=O)C(=O)N[C@@H](Cc1c[nH]c2ccccc12)C(=O)N[C@@H](CC(C)C)C(=O)N[C@H](C(=O)N[C@@H](CCC(N)=O)C(=O)N[C@H](C(=O)N[C@@H](CCCCN)C(=O)N[C@H](C(=O)N[C@H](C(=O)N[C@@H](CC(=O)O)C(N)=O)[C@@H](C)O)[C@@H](C)CC)[C@@H](C)O)[C@@H](C)CC)[C@@H](C)CC` [Example 11] ({Malonyl(2,2-Me2,histaminyl)}-[Ala(1H-tetrazol-5-yl)][dA]S[αMeF]SDE[Nle][dF]TILDLK(Alloc)[Aib]AKDFINWLIQTKITD-NH2) the same measures were 0.0126 nM, 1.58 nM, 102% and 95.4%.
On the same counts, the results for `C=CCOC(=O)NCCCC[C@H](NC(=O)[C@H](C)NC(=O)[C@H](C)NC(=O)[C@H](CCCCNC(=O)OCC=C)NC(=O)[C@H](CC(C)C)NC(=O)[C@H](CC(=O)O)NC(=O)[C@H](CC(C)C)NC(=O)[C@@H](NC(=O)[C@@H](NC(=O)[C@@H](Cc1ccccc1)NC(=O)[C@H](CCCC)NC(=O)[C@H](CCC(=O)O)NC(=O)[C@H](CC(=O)O)NC(=O)[C@H](CO)NC(=O)[C@H](Cc1ccccc1)NC(=O)[C@H](CO)NC(=O)CNC(=O)[C@H](Cc1nn[nH]n1)NC(=O)C(C)(C)C(=O)NCCc1c[nH]cn1)[C@@H](C)O)[C@@H](C)CC)C(=O)N[C@@H](CC(=O)O)C(=O)N[C@@H](Cc1ccccc1)C(=O)N[C@H](C(=O)N[C@@H](CC(N)=O)C(=O)N[C@@H](Cc1c[nH]c2ccccc12)C(=O)N[C@@H](CC(C)C)C(=O)N[C@H](C(=O)N[C@@H](CCC(N)=O)C(=O)N[C@H](C(=O)N[C@@H](CCCCN)C(=O)N[C@H](C(=O)N[C@H](C(=O)N[C@@H](CC(=O)O)C(N)=O)[C@@H](C)O)[C@@H](C)CC)[C@@H](C)O)[C@@H](C)CC)[C@@H](C)CC` [Example 14] ({Malonyl(2,2-Me2,histaminyl)}-[Ala(1H-tetrazol-5-yl)]GSFSDE[Nle][dF]TILDLK(Alloc)AAK(Alloc)DFINWLIQTKITD-NH2) are 0.01 nM, 12.6 nM, 101% and 96.1%.
On the same counts, the results for `C=CCOC(=O)NCCCC[C@H](NC(=O)[C@H](C)NC(=O)C(C)(C)NC(=O)[C@H](CCCCNC(=O)OCC=C)NC(=O)[C@H](CC(C)C)NC(=O)[C@H](CC(=O)O)NC(=O)[C@H](CC(C)C)NC(=O)C(C)(C)NC(=O)[C@@H](NC(=O)[C@@H](Cc1ccccc1)NC(=O)[C@H](CCCC)NC(=O)[C@H](CCC(=O)O)NC(=O)[C@H](CC(=O)O)NC(=O)[C@H](CO)NC(=O)[C@H](Cc1ccccc1)NC(=O)[C@H](CO)NC(=O)CNC(=O)[C@H](Cc1nn[nH]n1)NC(=O)C(C)(C)C(=O)NCCc1c[nH]cn1)[C@@H](C)O)C(=O)N[C@@H](CC(=O)O)C(=O)N[C@@H](Cc1ccccc1)C(=O)N[C@H](C(=O)N[C@@H](CC(N)=O)C(=O)N[C@@H](Cc1c[nH]c2ccccc12)C(=O)N[C@@H](CC(C)C)C(=O)N[C@H](C(=O)N[C@@H](CCC(N)=O)C(=O)N[C@H](C(=O)N[C@@H](CCCCN)C(=O)N[C@H](C(=O)N[C@H](C(=O)N[C@@H](CC(=O)O)C(N)=O)[C@@H](C)O)[C@@H](C)CC)[C@@H](C)O)[C@@H](C)CC)[C@@H](C)CC` [Example 16] ({Malonyl(2,2-Me2,histaminyl)}-[Ala(1H-tetrazol-5-yl)]GSFSDE[Nle][dF]T[Aib]LDLK(Alloc)[Aib]AK(Alloc)DFINWLIQTKITD-NH2) are 0.01 nM, 15.8 nM, 102% and 96%.
Turning to `C=CCOC(=O)NCCCC[C@H](NC(=O)[C@H](CC(C)C)NC(=O)[C@H](CC(=O)O)NC(=O)[C@H](CC(C)C)NC(=O)[C@@H](NC(=O)[C@@H](NC(=O)[C@@H](Cc1ccccc1)NC(=O)[C@H](CCCC)NC(=O)[C@H](CCC(=O)O)NC(=O)[C@H](CC(=O)O)NC(=O)[C@H](CO)NC(=O)[C@H](Cc1ccccc1)NC(=O)[C@H](CO)NC(=O)CNC(=O)[C@H](Cc1nn[nH]n1)NC(=O)C(C)(C)C(=O)NCCc1c[nH]cn1)[C@@H](C)O)[C@@H](C)CC)C(=O)NC(C)(C)C(=O)N[C@@H](C)C(=O)N[C@@H](CCCCN)C(=O)N[C@@H](CC(=O)O)C(=O)N[C@@H](Cc1ccccc1)C(=O)N[C@H](C(=O)N[C@@H](CC(N)=O)C(=O)N[C@@H](Cc1c[nH]c2ccccc12)C(=O)N[C@@H](CC(C)C)C(=O)N[C@H](C(=O)N[C@@H](CCC(N)=O)C(=O)N[C@H](C(=O)N[C@@H](CCCCN)C(=O)N[C@H](C(=O)N[C@H](C(=O)N[C@@H](CC(=O)O)C(N)=O)[C@@H](C)O)[C@@H](C)CC)[C@@H](C)O)[C@@H](C)CC)[C@@H](C)CC` [Example 18] ({Malonyl(2,2-Me2,histaminyl)}-[Ala(1H-tetrazol-5-yl)]GSFSDE[Nle][dF]TILDLK(Alloc)[Aib]AKDFINWLIQTKITD-NH2), the EC50 on human GLP2 receptor was 0.01 nM; at human GLP1 receptor it was 6.31 nM. For the same compound, the values for the Emax at human GLP2 receptor and on human GLP1 receptor were 102% and 94%, respectively.

A word on the Emax: it is the greatest response seen or fitted, relative to the assay's reference.
